Values joined by “and” are separate entries in the source; they are usually repeats but may differ in a detail not shown here. Identical values can stand only once.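 A five-concentration, 48-hour dose response in 96-well plates underlies each endpoint, interpolated linearly between surrounding concentrations. At the GI50, growth is halved. TGI marks complete inhibition of growth.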
Columns and labels:
Assay in all cases: DTP human tumour cell line panel, 48 h
786-0 renal = test system: 786-0 renal
A498 renal = test system: A498 renal
A549 NSCLC = test system: A549 NSCLC
ACHN renal = test system: ACHN renal
BT-549 breast = test system: BT-549 breast
CAKI-1 renal = test system: CAKI-1 renal
CCRF-CEM leukemia = test system: CCRF-CEM leukemia
COLO 205 colon = test system: COLO 205 colon
DU-145 prostate = test system: DU-145 prostate
EKVX NSCLC = test system: EKVX NSCLC
HCC-2998 colon = test system: HCC-2998 colon
HCT-116 colon = test system: HCT-116 colon
HCT-15 colon = test system: HCT-15 colon
HL-60(TB) leukemia = test system: HL-60(TB) leukemia
HOP-62 NSCLC = test system: HOP-62 NSCLC
HS 578T breast = test system: HS 578T breast
HT29 colon = test system: HT29 colon
IGROV1 ovarian = test system: IGROV1 ovarian
K-562 leukemia = test system: K-562 leukemia
KM12 colon = test system: KM12 colon
LOX IMVI melanoma = test system: LOX IMVI melanoma
M14 melanoma = test system: M14 melanoma
MALME-3M melanoma = test system: MALME-3M melanoma
MCF7 breast = test system: MCF7 breast
MDA-MB-231 breast = test system: MDA-MB-231 breast
MDA-MB-435 = test system: MDA-MB-435
MDA-N = test system: MDA-N
MOLT-4 leukemia = test system: MOLT-4 leukemia
NCI-H226 lung = test system: NCI-H226 lung
NCI-H23 lung = test system: NCI-H23 lung
NCI-H460 lung = test system: NCI-H460 lung
NCI-H522 lung = test system: NCI-H522 lung
NCI/ADR-RES ovarian = test system: NCI/ADR-RES ovarian
OVCAR-3 ovarian = test system: OVCAR-3 ovarian
OVCAR-4 ovarian = test system: OVCAR-4 ovarian
OVCAR-5 ovarian = test system: OVCAR-5 ovarian
OVCAR-8 ovarian = test system: OVCAR-8 ovarian
PC-3 prostate = test system: PC-3 prostate
RPMI-8226 leukemia = test system: RPMI-8226 leukemia
RXF 393 renal = test system: RXF 393 renal
SF-268 CNS = test system: SF-268 CNS
SF-295 CNS = test system: SF-295 CNS
SF-539 CNS = test system: SF-539 CNS
SK-MEL-2 melanoma = test system: SK-MEL-2 melanoma
SK-MEL-28 melanoma = test system: SK-MEL-28 melanoma
SK-MEL-5 melanoma = test system: SK-MEL-5 melanoma
SK-OV-3 ovarian = test system: SK-OV-3 ovarian
SN12C renal = test system: SN12C renal
SNB-19 CNS = test system: SNB-19 CNS
SNB-75 CNS = test system: SNB-75 CNS
SR leukemia = test system: SR leukemia
SW-620 colon = test system: SW-620 colon
T-47D breast = test system: T-47D breast
U251 CNS = test system: U251 CNS
UACC-257 melanoma = test system: UACC-257 melanoma
UACC-62 melanoma = test system: UACC-62 melanoma
UO-31 renal = test system: UO-31 renal
HOP-92 NSCLC = test system: HOP-92 NSCLC
TK-10 renal = test system: TK-10 renal

CN1CCN(c2ccc3[nH]c(C4=C(O)c5nc(CCl)n(C)c5C(=O)C4=O)nc3n2)CC1
GI50 (786-0 renal): 6.05 µM | TGI (786-0 renal): 50 µM and > 100 µM | TGI (A498 renal): 22.1 µM | TGI (A549 NSCLC): 50 µM and > 100 µM | GI50 (ACHN renal): 5.13 µM | TGI (ACHN renal): 30.7 µM and 43.1 µM | GI50 (BT-549 breast): 17.4 µM | TGI (BT-549 breast): 19.3 µM and 40.4 µM | GI50 (CAKI-1 renal): 24.2 µM | TGI (CAKI-1 renal): 37.1 µM and 74.4 µM | GI50 (CCRF-CEM leukemia): 15 µM | TGI (CCRF-CEM leukemia): > 50 µM and 36.4 µM | GI50 (COLO 205 colon): 1.79 µM | TGI (COLO 205 colon): 28.1 µM and 3.62 µM | GI50 (DU-145 prostate): 21.9 µM | TGI (DU-145 prostate): 22.4 µM and 67 µM | GI50 (EKVX NSCLC): 15.9 µM | TGI (EKVX NSCLC): 36.9 µM and 40.1 µM | TGI (HCC-2998 colon): 21.4 µM | GI50 (HCT-116 colon): 15.2 µM | TGI (HCT-116 colon): 16.1 µM and > 100 µM | TGI (HCT-15 colon): 50 µM and > 100 µM | GI50 (HL-60(TB) leukemia): 2.87 µM | TGI (HL-60(TB) leukemia): > 50 µM and 8.97 µM | GI50 (HOP-62 NSCLC): 20.7 µM | TGI (HOP-62 NSCLC): 19.7 µM and 53.5 µM | TGI (HS 578T breast): 75.5 µM | GI50 (HT29 colon): 13.7 µM | TGI (HT29 colon): 25.9 µM and 37.1 µM | GI50 (IGROV1 ovarian): 24.5 µM | TGI (IGROV1 ovarian): 16 µM and 47.9 µM | GI50 (K-562 leukemia): 2.84 µM | TGI (K-562 leukemia): 50 µM and > 100 µM | GI50 (KM12 colon): 15.9 µM | TGI (KM12 colon): 21 µM and 35.9 µM | GI50 (LOX IMVI melanoma): 3.07 µM | TGI (LOX IMVI melanoma): 15.2 µM and 7.43 µM | GI50 (M14 melanoma): 19.6 µM | TGI (M14 melanoma): 20.1 µM and 52.2 µM | GI50 (MALME-3M melanoma): 13 µM | TGI (MALME-3M melanoma): 11.4 µM and 30 µM | TGI (MCF7 breast): 18.5 µM | GI50 (MDA-MB-231 breast): 3.99 µM | TGI (MDA-MB-231 breast): 25 µM and 14.8 µM | GI50 (MDA-MB-435): 12.6 µM | TGI (MDA-MB-435): 19.3 µM and 30.8 µM | GI50 (MDA-N): 26.5 µM | TGI (MDA-N): 17.4 µM and > 100 µM | GI50 (MOLT-4 leukemia): 2.25 µM | TGI (MOLT-4 leukemia): 50 µM and 7.68 µM | GI50 (NCI-H226 lung): 18.3 µM | TGI (NCI-H226 lung): 36.2 µM and 37.7 µM | GI50 (NCI-H23 lung): 18.9 µM | TGI (NCI-H23 lung): 30.4 µM and 44.3 µM | TGI (NCI-H460 lung): 49.3 µM | GI50 (NCI-H522 lung): 3.54 µM | TGI (NCI-H522 lung): 3.29 µM and 12.2 µM | GI50 (NCI/ADR-RES ovarian): 88.6 µM | TGI (NCI/ADR-RES ovarian): > 100 µM | TGI (OVCAR-3 ovarian): 31.3 µM and 68.6 µM | TGI (OVCAR-4 ovarian): 44.7 µM and 33.7 µM | GI50 (OVCAR-5 ovarian): 20 µM | TGI (OVCAR-5 ovarian): 34.5 µM and 52.7 µM | GI50 (OVCAR-8 ovarian): 4.83 µM | TGI (OVCAR-8 ovarian): 16.2 µM and 29.2 µM | GI50 (PC-3 prostate): 11.7 µM | TGI (PC-3 prostate): 50 µM and 29.1 µM | GI50 (RPMI-8226 leukemia): 3.14 µM | TGI (RPMI-8226 leukemia): 50 µM and 15.2 µM | GI50 (RXF 393 renal): 3.49 µM | TGI (RXF 393 renal): 9.92 µM and 16.6 µM | TGI (SF-268 CNS): 49.1 µM | GI50 (SF-295 CNS): 24 µM | TGI (SF-295 CNS): 50 µM and 56.3 µM | GI50 (SF-539 CNS): 2.17 µM | TGI (SK-MEL-2 melanoma): 23.5 µM | GI50 (SK-MEL-28 melanoma): 16.1 µM | TGI (SK-MEL-28 melanoma): 50 µM and 34.8 µM | TGI (SK-MEL-5 melanoma): 50 µM | GI50 (SK-OV-3 ovarian): 19.8 µM | TGI (SK-OV-3 ovarian): 50 µM and 51.6 µM | GI50 (SN12C renal): 16.9 µM | TGI (SN12C renal): 20.5 µM and > 100 µM | GI50 (SNB-19 CNS): 11.8 µM | TGI (SNB-19 CNS): 16.7 µM and 32.6 µM | TGI (SNB-75 CNS): 18 µM | TGI (SR leukemia): 50 µM | GI50 (SW-620 colon): 3.61 µM | TGI (SW-620 colon): 50 µM and > 100 µM | GI50 (T-47D breast): 2.15 µM | TGI (T-47D breast): 3.99 µM and 6.95 µM | GI50 (U251 CNS): 2.03 µM | TGI (U251 CNS): 16.3 µM and 4.12 µM | TGI (UACC-257 melanoma): 31.9 µM | GI50 (UACC-62 melanoma): 2.46 µM | TGI (UACC-62 melanoma): 19.4 µM and 7.37 µM | GI50 (UO-31 renal): 21.8 µM | TGI (UO-31 renal): 13.3 µM and > 100 µM

CN(C(=O)Nc1ccc(Cl)c(Cl)c1)C1CCCC[C@@H]1N1CCCC1 (some centres undefined)
TGI (786-0 renal): > 100 µM | TGI (A498 renal): 55.9 µM | TGI (A549 NSCLC): > 100 µM | TGI (ACHN renal): > 100 µM | TGI (BT-549 breast): > 100 µM | TGI (CAKI-1 renal): > 100 µM | TGI (CCRF-CEM leukemia): > 100 µM | TGI (COLO 205 colon): 35.7 µM | TGI (DU-145 prostate): > 100 µM | TGI (EKVX NSCLC): > 100 µM | TGI (HCT-116 colon): > 100 µM | TGI (HCT-15 colon): > 100 µM | TGI (HOP-62 NSCLC): > 100 µM | TGI (HOP-92 NSCLC): > 100 µM | TGI (HS 578T breast): 73.9 µM | TGI (HT29 colon): > 100 µM | TGI (IGROV1 ovarian): > 100 µM | TGI (K-562 leukemia): > 100 µM | TGI (KM12 colon): > 100 µM | TGI (LOX IMVI melanoma): > 100 µM | TGI (M14 melanoma): 36.1 µM | TGI (MALME-3M melanoma): 37.8 µM | TGI (MCF7 breast): 87.4 µM | TGI (MDA-MB-231 breast): > 100 µM | TGI (MDA-MB-435): > 100 µM | TGI (MDA-N): > 100 µM | TGI (MOLT-4 leukemia): 96.8 µM | TGI (NCI-H226 lung): 39.5 µM | TGI (NCI-H23 lung): > 100 µM | TGI (NCI-H460 lung): > 100 µM | TGI (NCI-H522 lung): > 100 µM | TGI (NCI/ADR-RES ovarian): > 100 µM | TGI (OVCAR-3 ovarian): > 100 µM | TGI (OVCAR-4 ovarian): > 100 µM | TGI (OVCAR-5 ovarian): > 100 µM | TGI (OVCAR-8 ovarian): > 100 µM | TGI (PC-3 prostate): > 100 µM | TGI (RPMI-8226 leukemia): 64.1 µM | TGI (RXF 393 renal): > 100 µM | TGI (SF-268 CNS): 94.7 µM | TGI (SF-295 CNS): > 100 µM | TGI (SK-MEL-2 melanoma): > 100 µM | TGI (SK-MEL-28 melanoma): 47.6 µM | TGI (SK-MEL-5 melanoma): 30.6 µM | TGI (SK-OV-3 ovarian): > 100 µM | TGI (SN12C renal): > 100 µM | TGI (SNB-19 CNS): > 100 µM | TGI (SNB-75 CNS): > 100 µM | TGI (SR leukemia): > 100 µM | TGI (SW-620 colon): > 100 µM | TGI (T-47D breast): > 100 µM | TGI (TK-10 renal): > 100 µM | TGI (U251 CNS): > 100 µM | TGI (UACC-257 melanoma): 39.4 µM | TGI (UACC-62 melanoma): 40.2 µM | TGI (UO-31 renal): 84.2 µM

Source: PubChem BioAssay (NCI)
